In patent publication US20040092575A1, “Use of certain substituted pyrrolidones such as piracetam in the treatment of viral and other diseases” (priority 2001, published 2004):

How the values were obtained:
[1] = test system: viral tilted peptide; test: fusion process induced on LUV by the viral tilted peptide (analogues); settings: at the doses tested
Text: The same in vitro study as in Example 1 was used to investigate two analogues (levetiracetam and (R)-(−)-alpha-ethyl-2-oxo-1-pyrrolidine acetamide) in comparison with piracetam.

[2] = target: titled peptide of SIV-wt (12AA) (Simian immunodeficiency virus, UniProt P05885); test: fusion of large unilamellar vesicles (LUV) provoked by tilted peptide of SIV-wt; settings: at the doses tested
[3] = test system: A-201 cells devoid of CD4 receptors; test: formation of syncitia by fusion of infected cells with uninfected neighbouring cells, A-201 cells; format: cell-based, HIV; settings: no CD4 receptor, accordingly to the doses used
Text: (§1) HV has the property on cultured cells to provoke the formation of syncitia by fusion of infected cells with uninfected neighboring cells, when the virus ends its replication.
(§2) Virus have become remarkably opportunistic in exploring whatever complicated shapes they may find on the host cell surface as binding receptors (e.g. CD4, CXCR4, CCR5, CKR-5, CKR-3).
(§3) This study therefore investigated the ability of piracetam to inhibit the formation of syncitia, […], the primary binding receptor of HIV. For this purpose, two cultures of cells were used, A-201 cells devoid of CD4 receptors and SUP-Ti cells presenting CD4 receptors.

[4] = test system: acute viral hepatitis; test: Effect of piracetam on patients exhibiting acute viral hepatitis; format: in vivo
Description: 110 patients with acute hepatitis, hospitalised from the first or the second week of icterus, were included in the study. All patients were assigned to rest, and received diet and vitamins.
A first group received piracetam at a daily dose of 2.4 g (3×0.8 g/day), a second group received no piracetam and acted as control group. The main parameters were serum bilirubine and transaminases, measured once a week during the whole icterus period.
Inclusion criteria were bilirubine ([…]) (N<0.3) and transaminases (>400 U) (N<40).
The criteria for a positive response were bilirubine <1.5 mg/dl and transaminases <100 U.

[5] = test system: hepatitis C virus (HCV); test: Effect of piracetam on patients exhibiting chronic C virus hepatitis; format: in vivo
Text: 6 patients with chronic transfusion associated hepatitis C virus (HCV) received 6 months therapy with piracetam at a daily dose of 10.8 g (3×3.6 g/d) with no other treatment associated. This was followed by a 3 months period of no treatment. All patients, interferon non-responders, had chronic hepatitis from 6 to 19 years. The main criterion of efficacy was serum viral load (HCV-RNA) performed by polymerase chain reaction (PCR) at 0, 3, 6 and 9 months. These patients had manifested a gradual rise in their HCV-RNA. Thus, the criteria for no response was defined as no change in the increase of HCV-RNA, a positive response as a status quo of serum HVC-RNA and a significant response as a decrease of at least half a log of HCV-RNA.

[6] = target: T1, Alzheimer's β-amyloid tilted peptide 29-40 (Homo sapiens, UniProt P05067); test: fusion process induced by Alzheimer's β-amyloid tilted peptide 29-40 on membrane models; settings: amyloid peptide 29-40
T1 construct: two Alzheimer's β-amyloid tilted peptides (29-40 and 29-42) on membrane models
Description: (§4) Four fundamental studies using different tools such as conformational analysis, biophysical methods, NMR and two-hybrid assay were carried out.

[7] = target: T2, titled peptide of HUV-wt (wild type)(16 AA) (Human immunodeficiency virus type 1 group M subtype B, UniProt P04578); test: fusion of large unilamellar vesicles (LUV) provoked by tilted peptide of HUV-wt; set-up: species or system HIV; settings: at the doses tested
T2 construct: titled peptide of HUV-wt (wild type)(16 AA)

[8] = test system: SUP-Ti cells presenting CD4 receptors; test: formation of syncitia by fusion of infected cells with uninfected neighbouring cells, SUP-Ti cells; format: cell-based, HIV; settings: CD4 receptor present, accordingly to the doses used
Text: as §1, §2, §3

[9] = test system: herpes simplex virus 1 (HSV1); settings: Vero cells culture, in vitro; cited from earlier work
[10] = target: T3, Alzheimer's β-amyloid tilted peptide 29-42 (Homo sapiens, UniProt P05067); test: fusion process induced by Alzheimer's β-amyloid tilted peptide 29-42 on membrane models; settings: amyloid peptide 29-42
T3 construct: two Alzheimer's β-amyloid tilted peptides (29-40 and 29-42) on membrane models
Description: as §4

[11] = patients receiving piracetam from the first week of icterus
[12] = piracetam introduced after incubation of peptide with liposomes, whatever the dose
[13] = preincubation of piracetam before addition of the peptide

CC[C@H](C(N)=O)N1CCCC1=O [(R)-(−) alpha-ethyl-2-oxo-1-pyrrolidineacetamide]
inhibitory effect on the fusion process induced on LUV [1]: very clear inhibitory effect

CC[C@@H](C(N)=O)N1CCCC1=O [levetiracetam, (S)-α-ethyl-2-oxo-1-pyrrolidineacetamide]
inhibitory effect on the fusion process induced on LUV [1]: very clear inhibitory effect

NC(=O)CN1CCCC1=O [piracetam, 2-oxo-pyrrolidineacetamide]
inhibition of the fusion of LUV [2]: inhibits the fusion of LUV | inhibition of the formation of syncitia [3]: inhibited | Clinical tolerance ([4]; acute hepatitis patients, 2.4 g daily (3×0.8 g/day)): excellent | reduction of the icterus phase ([4]; compared to the control group, except for 6 patients out of 49): 50% | evolution in serum bilirubine levels [4, 11]: positive evolution was especially observed | evolution in serum transaminases [4, 11]: more pronounced | bilirubine levels ([4]; patients receiving piracetam from the second week of icterus): not significantly reduced | evolution in serum transaminases ([4]; patients receiving piracetam, 2.4 g daily): favourable, although non-significant | evolution in serum bilirubine levels ([4]; piracetam group vs control group, 2.4 g daily, p<0.0003): very highly significantly reduced | Clinical tolerance ([5]; chronic HCV patients, 10.8 g daily (3×3.6 g/d), 6 months): excellent | change of serum HCV-RNA ([5]; four of 6 patients, PCR, 10.8 g daily): decrease | decrease of serum HCV-RNA ([5]; the patient most recently infected (6 years), significant): < 0.6 log | increase of serum HCV-RNA ([5]; two of 6 patients, PCR, 10.8 g daily): < 10% | inhibition of the fusion process on membrane models ([6]; four studies overall): inhibit the fusion process | inhibition of the fusion process [6, 12]: not able to inhibit | inhibition of the fusion process [6, 13]: inhibits almost completely | inhibition of the fusion of LUV [7]: inhibits the fusion of LUV | inhibition of the formation of syncitia [8]: inhibited | ability to stop the replication of HSV1 [9]: stop the replication | inhibition of the fusion process on membrane models ([10]; four studies overall): inhibit the fusion process | inhibition of the fusion process [10, 12]: not able to inhibit | inhibition of the fusion process [10, 13]: inhibits almost completely
